Test: Color stability by LabScan XE (CIELAB L*, a*, b*, ΔE) after storage
Format: physicochemical
Conditions: Examples 3 and 4
Protocol: Generally, ΔE≤10 is acceptable, ΔE between 10 to 20 is negotiable and ΔE>20 is unacceptable. For the b* value, the values represent a blue-yellow component of an object's color, wherein a negative (−) value represents movement into the blue color space while a positive (+) value represents movement into the yellow color space. A b* value of 0 represents a true neutral gray value.
Color stability is determined through the use of LabScan XE equipment (Hunter Associates Laboratory, Inc. Reston, Va.). LabScan XE measures color data. Samples at different storage stages housed in vials or in measurement cells are loaded onto the LabScan XE measurement port. By following the measurement procedure specified in the associated instrument menu and computer software, colors (a*, b* and L*) are measured and calculated to result in a color change data (ΔE) value. b* is the scale of blue-yellow space based on the CIELAB color space model, wherein an increase in b* value indicates the increase in yellow color components, and the decrease of b* value indicates the increase of blue color components.

CCCCCCCCCCCCCC(=O)OC(C)C [isopropyl myristate]
color stability / ΔE over time, comparison in words: greater color stability

From patent US20230240958A1, “COSMETIC COMPOSITION WITH ENHANCED COLOR STABILITY FOR RETINOIC ACID PRECURSOR” (Conopco, Inc., d/b/a UNILEVER, priority 2020, published 2023)
